Patent US20220401514A1, “ANTIMICROBIAL, BACTERIOPHAGE-DERIVED POLYPEPTIDES AND THEIR USE AGAINST GRAM-NEGATIVE AND ACID-FAST BACTERIA” (CONTRAFECT CORPORATION, priority 2019, published 2022)

Assays:
[1] = tested on: isolates identified as having novel antibiotic resistance; experiment: MIC against CDC novel antibiotic resistance panel (n = 11); type: cell-based
Procedure: MIC values were determined using the methodology described above, i.e., the standard broth microdilution reference method defined by CLSI.
See wwwn.cdc.gov/ARIsolateBank/Panel/PanelDetail?ID=10.

[2] = tested on: P. aeruginosa strain PA20 persister cells; experiment: Activity against persister cells, P. aeruginosa; type: cell-based, Pseudomonas aeruginosa
[3] = tested on: eight different strains of five species of Gram-negative bacteria; experiment: MBEC in eight strains of five species of Gram-negative bacteria; type: cell-based; settings: for MBEC: 24 h biofilm in LB, 16 h treatment
Procedure: Determination of Minimal Biofilm Eradicating Concentrations (MBEC). […] The OD600 of extracted crystal violet was determined. The MBEC value of each sample was determined as the minimum drug concentration required to remove >95% of biofilm biomass as assessed by crystal violet quantitation (in comparison to untreated controls).
MBEC values were likewise determined for Chp2, Chp2-M1, and Chp10-M1 in eight different strains of five species of Gram-negative bacteria. […] The films were then washed and stained with crystal violet to visualize the MBEC.

[4] = tested on: Klebsiella pneumoniae strain 1139; experiment: Checkerboard assay (FICI) with antibiotics, K. pneumoniae; type: cell-based
Method in brief: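 Antibiotics in 2-fold dilutions across one axis against Chp peptide dilutions on the other. FICI = MIC in combination/MIC alone for antibiotic plus the same ratio for peptide; minimum FICI used. Synergy at FICI ≤0.5, strongly additive >0.5 to <1, additive 1-<2, antagonistic ≥2.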

[5] = tested on: P. aeruginosa strain CFS-1292; experiment: Time-kill assay in CAA with 2.5% human serum; type: cell-based, Pseudomonas aeruginosa; settings: for Loss of bacterial viability: CAA with […] human serum, vs untreated controls
Procedure: Time-Kill Assay of Chp Peptide Activity. […] Exponential phase bacteria were then diluted 1:100 into CAA/HuS and peptide was added at a final concentration of either 1 or 10 μg/mL. Control cultures were included with no peptide added (i.e., buffer control).

Salmonella typhimurium = experiment: MIC against Salmonella typhimurium; type: cell-based; settings: Salmonella typhimurium
[6] = tested on: Pseudomonas aeruginosa isolates; experiment: MIC against CDC Pseudomonas aeruginosa panel (n = 55); type: cell-based
[7] = novel antibiotic resistance panel

## MRLKMARRRYRLPRRRSRRLFSRTALRMHPRNRLRRIMRGGIRF [Chp2]
[1]; Bank No. 0346, Escherichia coli
  MIC: 0.25 µg/mL
[1]; Bank No. 0347, Klebsiella pneumoniae
  MIC: 0.5 µg/mL
[1]; Bank No. 0348, Escherichia coli
  MIC: 0.5 µg/mL
[1]; Bank No. 0349, Escherichia coli
  MIC: 1 µg/mL
[1]; Bank No. 0350, Escherichia coli
  MIC: 1 µg/mL
[1]; Bank No. 0493, Escherichia coli
  MIC: 0.5 µg/mL
[1]; Bank No. 0494, Escherichia coli
  MIC: 1 µg/mL
[1]; Bank No. 0495, Escherichia coli
  MIC: 1 µg/mL
[1]; Bank No. 0497, Klebsiella pneumoniae
  MIC: 0.5 µg/mL
[1]; Bank No. 0538, Escherichia coli
  MIC: 1 µg/mL
[1]; Bank No. 0637, Citrobacter freundi
  MIC: 1 µg/mL
[1]; [7]
  MIC50: 0.5 µg/mL
  MIC90: 1 µg/mL
[2]; P. aeruginosa PA20 persister cells, Run #1, limit of detection 2-log10 CFU/mL
  Viable persister count after treatment (log10 CFU/mL): 2.7 Log10 (CFU/mL)
[2]; P. aeruginosa PA20 persister cells, Run #2, limit of detection 2-log10 CFU/mL
  Viable persister count after treatment (log10 CFU/mL): 2.3 Log10 (CFU/mL)
[2]; P. aeruginosa PA20 persister cells, Run #3, limit of detection 2-log10 CFU/mL
  Viable persister count after treatment (log10 CFU/mL): 2 Log10 (CFU/mL)
[2]; P. aeruginosa PA20 persister cells, average of 3 runs
  Viable persister count after treatment (log10 CFU/mL): 2.3 Log10 (CFU/mL)
[2]; P. aeruginosa PA20 persister cells, log10 CFU/mL reduction as compared to buffer
  Delta Log: 2.1
[2]; P. aeruginosa persister cells, 1 hour at 37° C.
  log10 CFU/mL reduction as compared to buffer: 2.1 log10 CFU/mL
[3]; A. baumanni (ATCC BAA-747)
  MBEC: 0.5 µg/mL
[3]; E. cloacae (CCUG 63317)
  MBEC: 2 µg/mL
[3]; E. coli (ATCC 25922)
  MBEC: 2 µg/mL
[3]; E. coli (ATCC 35329)
  MBEC: 4 µg/mL
[3]; E. coli (EC2)
  MBEC: 2 µg/mL
[3]; K. pneumoniae (ATCC 700603)
  MBEC: 4 µg/mL
[3]; K. pneumoniae (KP1)
  MBEC: 2 µg/mL
[3]; P. aeruginosa (ATCC 27853)
  MBEC: 0.25 µg/mL
[3]; biofilms formed 24 hours in LB, treated 16 hours
  antibiofilm activity (MBEC): potent antibiofilm activity
[4]; Chp peptide combined with Azithromycin
  FIC Index: 0.25
[4]; Chp peptide combined with Aztreonam
  FIC Index: 0.563
[4]; Chp peptide combined with Colistin
  FIC Index: 0.625
[4]; Chp peptide combined with Imipenem
  FIC Index: 0.5
[4]; Chp peptide combined with Levofloxacin
  FIC Index: 0.5
[4]; Chp peptide combined with Meropenem
  FIC Index: 0.313
[4]; Chp peptide combined with Tobramycin
  FIC Index: 0.5
[4]; combined with Azithromycin
  Chp peptide FIC: 0.125
  Chp peptide MIC in checkerboard: 0.0625 µg/mL
[4]; combined with Aztreonam
  Chp peptide FIC: 0.0625
  Chp peptide MIC in checkerboard: 0.3125 µg/mL
[4]; combined with Colistin
  Chp peptide FIC: 0.5
  Chp peptide MIC in checkerboard: 0.25 µg/mL
[4]; combined with Imipenem
  Chp peptide FIC: 0.25
  Chp peptide MIC in checkerboard: 0.125 µg/mL
[4]; combined with Levofloxacin
  Chp peptide FIC: 0.25
  Chp peptide MIC in checkerboard: 0.0625 µg/mL
[4]; combined with Meropenem
  Chp peptide FIC: 0.0625
  Chp peptide MIC in checkerboard: 0.0625 µg/mL
[4]; combined with Tobramycin
  Chp peptide FIC: 0.25
  Chp peptide MIC in checkerboard: 0.125 µg/mL
[5]; 1 μg/mL, 1 hour
  Loss of bacterial viability: >3.5 log10 CFU/mL
[5]; 1 μg/mL, 3 hours
  Loss of bacterial viability: >4 log10 CFU/mL
[5]; 1 μg/mL, 24 hours
  Loss of bacterial viability: >4.8 log10 CFU/mL
[5]; 10 μg/mL, 1 hour
  Loss of bacterial viability: >3.5 log10 CFU/mL
[5]; 10 μg/mL, 3 hours
  Loss of bacterial viability: >4 log10 CFU/mL
[5]; 10 μg/mL, 24 hours
  Loss of bacterial viability: >4.8 log10 CFU/mL
[5]; 1, 3 and 24 hours, 1 μg/mL and 10 μg/mL, CAA + […] human serum
  bacterial viability after treatment (time-kill): multi-log fold decreases
Salmonella typhimurium
  MIC: 2 µg/mL
[6]; CDC Antibiotic-Resistant Bank No. 0229
  MIC: 0.5 µg/mL
[6]; CDC Antibiotic-Resistant Bank No. 0230
  MIC: 0.5 µg/mL
[6]; CDC Antibiotic-Resistant Bank No. 0231
  MIC: 0.5 µg/mL
[6]; CDC Antibiotic-Resistant Bank No. 0232
  MIC: 0.5 µg/mL
[6]; CDC Antibiotic-Resistant Bank No. 0233
  MIC: 0.5 µg/mL
[6]; CDC Antibiotic-Resistant Bank No. 0234
  MIC: 0.5 µg/mL
[6]; CDC Antibiotic-Resistant Bank No. 0235
  MIC: 0.5 µg/mL
[6]; CDC Antibiotic-Resistant Bank No. 0236
  MIC: 0.5 µg/mL
[6]; CDC Antibiotic-Resistant Bank No. 0237
  MIC: 0.5 µg/mL
[6]; CDC Antibiotic-Resistant Bank No. 0238
  MIC: 0.5 µg/mL
[6]; CDC Antibiotic-Resistant Bank No. 0239
  MIC: 1 µg/mL
[6]; CDC Antibiotic-Resistant Bank No. 0240
  MIC: 1 µg/mL
[6]; CDC Antibiotic-Resistant Bank No. 0241
  MIC: 1 µg/mL
[6]; CDC Antibiotic-Resistant Bank No. 0242
  MIC: 0.5 µg/mL
[6]; CDC Antibiotic-Resistant Bank No. 0243
  MIC: 0.5 µg/mL
[6]; CDC Antibiotic-Resistant Bank No. 0244
  MIC: 1 µg/mL
[6]; CDC Antibiotic-Resistant Bank No. 0245
  MIC: 0.5 µg/mL
[6]; CDC Antibiotic-Resistant Bank No. 0246
  MIC: 1 µg/mL
[6]; CDC Antibiotic-Resistant Bank No. 0247
  MIC: 1 µg/mL
[6]; CDC Antibiotic-Resistant Bank No. 0248
  MIC: 1 µg/mL
[6]; CDC Antibiotic-Resistant Bank No. 0249
  MIC: 1 µg/mL
[6]; CDC Antibiotic-Resistant Bank No. 0250
  MIC: 1 µg/mL
[6]; CDC Antibiotic-Resistant Bank No. 0251
  MIC: 1 µg/mL
[6]; CDC Antibiotic-Resistant Bank No. 0252
  MIC: 1 µg/mL
[6]; CDC Antibiotic-Resistant Bank No. 0253
  MIC: 1 µg/mL
[6]; CDC Antibiotic-Resistant Bank No. 0254
  MIC: 1 µg/mL
[6]; CDC Antibiotic-Resistant Bank No. 0255
  MIC: 1 µg/mL
[6]; CDC Antibiotic-Resistant Bank No. 0256
  MIC: 1 µg/mL
[6]; CDC Antibiotic-Resistant Bank No. 0257
  MIC: 1 µg/mL
[6]; CDC Antibiotic-Resistant Bank No. 0258
  MIC: 2 µg/mL
[6]; CDC Antibiotic-Resistant Bank No. 0259
  MIC: 1 µg/mL
[6]; CDC Antibiotic-Resistant Bank No. 0260
  MIC: 0.5 µg/mL
[6]; CDC Antibiotic-Resistant Bank No. 0261
  MIC: 1 µg/mL
[6]; CDC Antibiotic-Resistant Bank No. 0262
  MIC: 1 µg/mL
[6]; CDC Antibiotic-Resistant Bank No. 0263
  MIC: 1 µg/mL
[6]; CDC Antibiotic-Resistant Bank No. 0264
  MIC: 1 µg/mL
[6]; CDC Antibiotic-Resistant Bank No. 0265
  MIC: 1 µg/mL
[6]; CDC Antibiotic-Resistant Bank No. 0266
  MIC: 1 µg/mL
[6]; CDC Antibiotic-Resistant Bank No. 0267
  MIC: 1 µg/mL
[6]; CDC Antibiotic-Resistant Bank No. 0268
  MIC: 1 µg/mL
[6]; CDC Antibiotic-Resistant Bank No. 0269
  MIC: 1 µg/mL
[6]; CDC Antibiotic-Resistant Bank No. 0270
  MIC: 0.5 µg/mL
[6]; CDC Antibiotic-Resistant Bank No. 0271
  MIC: 1 µg/mL
[6]; CDC Antibiotic-Resistant Bank No. 0272
  MIC: 1 µg/mL
[6]; CDC Antibiotic-Resistant Bank No. 0763
  MIC: 1 µg/mL
[6]; CDC Antibiotic-Resistant Bank No. 0764
  MIC: 1 µg/mL
[6]; CDC Antibiotic-Resistant Bank No. 0765
  MIC: 1 µg/mL
[6]; CDC Antibiotic-Resistant Bank No. 0766
  MIC: 1 µg/mL
[6]; CDC Antibiotic-Resistant Bank No. 0767
  MIC: 1 µg/mL
[6]; CDC Antibiotic-Resistant Bank No. 0768
  MIC: 0.5 µg/mL
[6]; CDC Antibiotic-Resistant Bank No. 0769
  MIC: 1 µg/mL
[6]; CDC Antibiotic-Resistant Bank No. 0770
  MIC: 1 µg/mL
[6]; CDC Antibiotic-Resistant Bank No. 0771
  MIC: 1 µg/mL
[6]; CDC Antibiotic-Resistant Bank No. 0772
  MIC: 1 µg/mL
[6]; CDC Antibiotic-Resistant Bank No. 0773
  MIC: 1 µg/mL
[6]; Pseudomonas aeruginosa panel
  MIC50: 1 µg/mL
  MIC90: 1 µg/mL
